US20220062240A1, “METHODS OF TREATING CANCER USING A CLK INHIBITOR” (BioSplice Therapeutics, Inc., priority 2018, published 2022)
Where two headings read alike, the source gives them in different places. Each block holds one compound with its values, some of them ahead of it.

Assays:
[1] = system: lung cancer (4 cell lines); experiment: CellTiter-Glo Viability Assay, lung cancer; type: cell-based; conditions: Homo sapiens, inhibition of cancer cell proliferation
[2] = system: liver cancer (3 cell lines); experiment: CellTiter-Glo Viability Assay, liver cancer; type: cell-based; conditions: Homo sapiens, inhibition of cancer cell proliferation
[3] = system: ovarian cancer (4 cell lines); experiment: CellTiter-Glo Viability Assay, ovarian cancer; type: cell-based; conditions: Homo sapiens, inhibition of cancer cell proliferation
CLK3 = CLK3 (Homo sapiens, UniProt P49761); experiment: CLK3 kinase activity assay (Z-lyte, Ser/Thr 18 peptide)
CLK3, sequence (P49761 whole entry): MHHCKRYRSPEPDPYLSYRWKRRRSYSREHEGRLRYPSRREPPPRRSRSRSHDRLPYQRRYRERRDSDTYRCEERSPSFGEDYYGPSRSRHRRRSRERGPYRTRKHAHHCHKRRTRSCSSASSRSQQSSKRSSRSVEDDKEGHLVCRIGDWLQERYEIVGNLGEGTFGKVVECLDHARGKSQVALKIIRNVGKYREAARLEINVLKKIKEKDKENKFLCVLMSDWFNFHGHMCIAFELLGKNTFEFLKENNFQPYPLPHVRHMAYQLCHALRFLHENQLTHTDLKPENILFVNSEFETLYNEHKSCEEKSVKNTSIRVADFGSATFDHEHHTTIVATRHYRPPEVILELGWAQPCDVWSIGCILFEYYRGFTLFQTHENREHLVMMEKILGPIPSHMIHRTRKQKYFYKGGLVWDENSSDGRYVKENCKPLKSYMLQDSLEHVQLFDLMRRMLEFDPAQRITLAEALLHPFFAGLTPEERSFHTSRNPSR

all 50 cell lines = experiment: CellTiter-Glo Viability Assay, average across all cell lines; type: cell-based; conditions: Homo sapiens; across all 50 cell lines; read-out: average EC50 for inhibition of cancer cell proliferation
Procedure, shortened: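 Luminescent ATP read-out (CellTiter-Glo) after a 4-day compound exposure at 37° C served as the viability measure. Cells were seeded at 300-3,000/well, compound wells run in duplicate against DMSO controls, and EC50 values came from fitted dose-response curves.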

CLK2 = target: T1, CLK2 (Homo sapiens, UniProt P49760); experiment: CLK2 kinase activity assay (Z-lyte, Ser/Thr 6 peptide); type: biochemical; conditions: recombinant CLK2 kinase, ATP 60 μM; read-out: EC50
T1 construct: purchased Thermo Fisher (Life Technologies), Z'-LYTE Kinase Assay Kits
T1 sequence (P49760 whole entry): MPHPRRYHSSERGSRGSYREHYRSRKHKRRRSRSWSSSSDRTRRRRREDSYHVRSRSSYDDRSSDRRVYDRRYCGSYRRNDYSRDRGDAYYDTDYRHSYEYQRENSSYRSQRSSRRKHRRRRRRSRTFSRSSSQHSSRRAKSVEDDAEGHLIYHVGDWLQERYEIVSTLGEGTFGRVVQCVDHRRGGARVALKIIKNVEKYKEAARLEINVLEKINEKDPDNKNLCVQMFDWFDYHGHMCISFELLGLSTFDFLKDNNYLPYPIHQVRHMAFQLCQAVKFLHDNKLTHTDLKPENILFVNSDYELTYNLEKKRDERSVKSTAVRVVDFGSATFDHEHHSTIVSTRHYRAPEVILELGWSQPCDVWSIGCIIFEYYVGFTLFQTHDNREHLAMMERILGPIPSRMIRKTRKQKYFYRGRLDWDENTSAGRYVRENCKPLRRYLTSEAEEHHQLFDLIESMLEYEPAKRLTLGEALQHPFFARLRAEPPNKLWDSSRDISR
Experimental: All reactions were performed in duplicate.

[4] = system: pancreatic cancer (8 cell lines); experiment: CellTiter-Glo Viability Assay, pancreatic cancer; type: cell-based; conditions: Homo sapiens, inhibition of cancer cell proliferation
[5] = system: haematopoietic & lymphoid tumors (13 cell lines); experiment: CellTiter-Glo Viability Assay, haematopoietic & lymphoid tumors; type: cell-based; conditions: Homo sapiens, inhibition of cancer cell proliferation
[6] = system: prostate cancer (5 cell lines); experiment: CellTiter-Glo Viability Assay, prostate cancer; type: cell-based; conditions: Homo sapiens
[7] = system: colorectal cancer (6 cell lines); experiment: CellTiter-Glo Viability Assay, colorectal cancer; type: cell-based; conditions: Homo sapiens, inhibition of cancer cell proliferation
DU4475 = experiment: CellTiter-Glo Viability Assay, breast cancer; type: cell-based; conditions: Homo sapiens, DU-4475, 96 h; DU4475, breast cancer, four days; read-out: EC50
ZR-75-1 = experiment: CellTiter-Glo Viability Assay, breast cancer; type: cell-based; conditions: Homo sapiens, 96 h; ZR-75-1, breast cancer, four days; read-out: EC50
MCF7 = experiment: CellTiter-Glo Viability Assay, breast cancer; type: cell-based; conditions: Homo sapiens, 96 h; MCF7, breast cancer, four days; read-out: EC50
T47D = experiment: CellTiter-Glo Viability Assay, breast cancer; type: cell-based; conditions: Homo sapiens, 96 h, breast cancer, four days, read-out: EC50
HCC1599 = experiment: CellTiter-Glo Viability Assay, breast cancer; type: cell-based; conditions: Homo sapiens, 96 h; HCC1599, breast cancer, four days; read-out: EC50
BT-549 = experiment: CellTiter-Glo Viability Assay, breast cancer; type: cell-based; conditions: Homo sapiens, 96 h; BT-549, breast cancer, four days; read-out: EC50
MDA-MB-231-Luc = experiment: CellTiter-Glo Viability Assay, breast cancer; type: cell-based; conditions: Homo sapiens, 96 h; MDA-MB-231-Luc, breast cancer, four days; read-out: EC50
CAMA1 = experiment: CellTiter-Glo Viability Assay, breast cancer; type: cell-based; conditions: Homo sapiens, CAMA-1, 96 h; CAMA1, breast cancer, four days; read-out: EC50
[8] = A-427, A427 cell line, read-out: Lung cancer, EC50 (μM) A427
[9] = HCC78, HCC-78 cell line, read-out: Lung cancer, EC50 (μM) HCC-78
[10] = NCI-H460 cell line, read-out: Lung cancer, EC50 (μM) NCI-H460
[11] = NCI-H522 cell line, read-out: Lung cancer, EC50 (μM) NCI-H522
[12] = SNU-398, SNU398 cell line, read-out: Liver cancer, EC50 SNU398
[13] = HEPG2 cell line, read-out: Liver cancer, EC50 HEPG2
[14] = PLC/PRF/5 cell line, read-out: Liver cancer, EC50 PLC/PRF/5
[15] = PA-1, PA1 cell line, read-out: Ovarian cancer, EC50 (μM) PA1
[16] = TOV112D, TOV-112D cell line, read-out: Ovarian cancer, EC50 (μM) TOV-112D
[17] = OV-90 cell line, read-out: Ovarian cancer, EC50 (μM) OV-90
[18] = OVCAR-3 cell line, read-out: Ovarian cancer, EC50 (μM) OVCAR-3
[19] = BXPC-3, BxPC3 cell line, read-out: Pancreatic cancer, EC50 BxPC3
[20] = CAPAN-1, Capan1 cell line, read-out: Pancreatic cancer, EC50 Capan1
[21] = Capan-2, Capan2 cell line, read-out: Pancreatic cancer, EC50 Capan2
[22] = MIA PaCa-2 cell line, read-out: Pancreatic cancer, EC50 MIA PaCa-2
[23] = PANC 05.04 cell line, read-out: Pancreatic cancer, EC50 PANC 05.04
[24] = PANC-1 cell line, read-out: Pancreatic cancer, EC50 PANC-1
[25] = UPAFII cell line, read-out: Pancreatic cancer, EC50 UPAFII
[26] = DND41, DND-41 cell line, read-out: Haematopoietic & Lymphoid tumors, EC50 (μM) DND-41
[27] = MV4-11, MV-4-11 cell line, read-out: Haematopoietic & Lymphoid tumors, EC50 (μM) MV-4-11
[28] = Rec1, REC-1 cell line, read-out: Haematopoietic & Lymphoid tumors, EC50 (μM) REC-1
[29] = SU-DHL-4, SUDHL4 cell line, read-out: Haematopoietic & Lymphoid tumors, EC50 (μM) SUDHL4
[30] = HL-60 cell line, read-out: Haematopoietic & Lymphoid tumors, EC50 (μM) HL-60
[31] = JM1 cell line, read-out: Haematopoietic & Lymphoid tumors, EC50 (μM) JM1
[32] = JURKAT, Clone E6-1 cell line, read-out: Haematopoietic & Lymphoid tumors, EC50 (μM) JURKAT, Clone E6-1
[33] = JeKo-1 cell line, read-out: Haematopoietic & Lymphoid tumors, EC50 (μM) JeKo-1
[34] = KASUMI-1 cell line, read-out: Haematopoietic & Lymphoid tumors, EC50 (μM) KASUMI-1
[35] = Loucy cell line, read-out: Haematopoietic & Lymphoid tumors, EC50 (μM) Loucy
[36] = MOLT-4 cell line, read-out: Haematopoietic & Lymphoid tumors, EC50 (μM) MOLT-4
[37] = TF-1 cell line, read-out: Haematopoietic & Lymphoid tumors, EC50 (μM) TF-1
[38] = TOLEDO cell line, read-out: Haematopoietic & Lymphoid tumors, EC50 (μM) TOLEDO
[39] = DU-145, read-out: Prostate cancer EC50 Du-145
[40] = PC-3, PC3 cell line, inhibition of cancer cell proliferation, read-out: Prostate cancer EC50 PC3
[41] = 22Rv1 cell line, inhibition of cancer cell proliferation, read-out: Prostate cancer EC50 22Rv1
[42] = LNCap clone FGC cell line, inhibition of cancer cell proliferation, read-out: Prostate cancer EC50 LNCap clone FGC
[43] = VCaP (Sigma) cell line, inhibition of cancer cell proliferation, read-out: Prostate cancer EC50 VCaP (Sigma)
[44] = HCT-116, HCT116 cell line, read-out: Colorectal cancer, EC50 (μM) HCT116
[45] = HT-29, HT29 cell line, read-out: Colorectal cancer, EC50 (μM) HT29
[46] = SW-620, SW620 cell line, read-out: Colorectal cancer, EC50 (μM) SW620
[47] = DLD-1 cell line, read-out: Colorectal cancer, EC50 (μM) DLD-1
[48] = SW48 cell line, read-out: Colorectal cancer, EC50 (μM) SW48
[49] = SW480 cell line, read-out: Colorectal cancer, EC50 (μM) SW480

EC50 [1, 8]: 0.452 µM | EC50 [1, 9]: 0.64 µM | EC50 [1, 10]: 0.564 µM | EC50 [1, 11]: 0.412 µM | EC50 [2, 12]: 0.096 µM | EC50 [2, 13]: > 10 µM | EC50 [2, 14]: 0.35 µM | EC50 [3, 15]: > 10 µM | EC50 [3, 16]: 0.143 µM | EC50 [3, 17]: 0.562 µM | EC50 [3, 18]: 0.171 µM | EC50 (CLK3): 0.012 µM | EC50 (CLK2): 0.004 µM | EC50 [4, 19]: 0.527 µM | EC50 [4, 20]: 0.224 µM | EC50 [4, 21]: 0.295 µM | EC50 [4, 22]: 0.148 µM | EC50 [4, 23]: 0.419 µM | EC50 [4, 24]: 0.488 µM | EC50 [4, 25]: 0.135 µM | EC50 [5, 26]: 0.207 µM | EC50 [5, 27]: 0.067 µM | EC50 [5, 28]: 0.082 µM | EC50 [5, 29]: 0.491 µM | EC50 [5, 30]: 0.252 µM | EC50 [5, 31]: 0.175 µM | EC50 [5, 32]: 0.466 µM | EC50 [5, 33]: 0.109 µM | EC50 [5, 34]: 0.209 µM | EC50 [5, 35]: 0.241 µM | EC50 [5, 36]: 0.13 µM | EC50 [5, 37]: 0.226 µM | EC50 [5, 38]: 0.122 µM | EC50 [6, 39]: 0.239 µM | EC50 [6, 40]: 0.25 µM | EC50 [6, 41]: 0.414 µM | EC50 [6, 42]: 0.509 µM | EC50 [6, 43]: 0.505 µM | EC50 [7, 44]: 0.077 µM | EC50 [7, 45]: 0.198 µM | EC50 [7, 46]: 0.067 µM | EC50 [7, 47]: 0.173 µM | EC50 [7, 48]: 0.059 µM | EC50 [7, 49]: 0.136 µM | EC50 (DU4475): 0.42 µM | EC50 (ZR-75-1): 0.506 µM | EC50 (MCF7): 0.683 µM | EC50 (T47D): 0.635 µM | EC50 (HCC1599): 0.094 µM | EC50 (BT-549): 0.21 µM | EC50 (MDA-MB-231-Luc): > 10 µM | EC50 (CAMA1): 0.399 µM
SMILES: CC(C)Nc1cncc(-c2ccc3cnc(NC(=O)c4cn(C5CCN(CCF)CC5)nn4)cc3c2)n1 [Compound 85]
EC50 (all 50 cell lines): 0.88 µM

EC50 [1, 8]: 0.13 µM | EC50 [1, 9]: 0.136 µM | EC50 [1, 10]: 0.243 µM | EC50 [1, 11]: 0.091 µM | EC50 [2, 12]: 0.055 µM | EC50 [2, 13]: 0.164 µM | EC50 [2, 14]: 0.371 µM | EC50 [3, 15]: 0.23 µM | EC50 [3, 16]: 0.101 µM | EC50 [3, 17]: 0.361 µM | EC50 [3, 18]: 0.111 µM | EC50 (CLK3): 0.0217 µM | EC50 (CLK2): 0.0112 µM | EC50 [4, 19]: 0.046 µM | EC50 [4, 20]: 0.114 µM | EC50 [4, 21]: 0.151 µM | EC50 [4, 22]: 0.06 µM | EC50 [4, 23]: 0.14 µM | EC50 [4, 24]: 0.217 µM | EC50 [4, 25]: 0.106 µM | EC50 [5, 26]: 0.106 µM | EC50 [5, 27]: 0.008 µM | EC50 [5, 28]: 0.022 µM | EC50 [5, 29]: 0.079 µM | EC50 [5, 30]: 0.246 µM | EC50 [5, 31]: 0.06 µM | EC50 [5, 32]: 0.226 µM | EC50 [5, 33]: 0.04 µM | EC50 [5, 34]: 0.053 µM | EC50 [5, 35]: 0.105 µM | EC50 [5, 36]: 0.125 µM | EC50 [5, 37]: 0.08 µM | EC50 [5, 38]: 0.066 µM | EC50 [6, 39]: 0.123 µM | EC50 [6, 40]: 0.093 µM | EC50 [6, 41]: 0.102 µM | EC50 [6, 42]: 0.332 µM | EC50 [6, 43]: 0.098 µM | EC50 [7, 44]: 0.06 µM | EC50 [7, 45]: 0.171 µM | EC50 [7, 46]: 0.047 µM | EC50 [7, 47]: 0.131 µM | EC50 [7, 48]: 0.023 µM | EC50 [7, 49]: 0.061 µM | EC50 (DU4475): 0.095 µM | EC50 (ZR-75-1): 0.216 µM | EC50 (MCF7): 0.36 µM | EC50 (T47D): 0.281 µM | EC50 (HCC1599): 0.125 µM | EC50 (BT-549): 0.116 µM | EC50 (MDA-MB-231-Luc): 0.202 µM | EC50 (CAMA1): 0.433 µM
SMILES: CN1CCC(C(=O)Nc2c[nH]nc2-c2nc3c(-c4ccc(F)s4)cccc3[nH]2)CC1 [Compound 90]
EC50 (all 50 cell lines): 0.142 µM
